# Test results as given in patent US8138159B2, “Composition for inhibiting function of human Flt3” (Takara Bio Inc., priority 2003, dated 2012).
# Experiments:
# Format in all cases: cell-based, human
# [1] = tested on: EoL1 cells (WT-highly expressing); test: cell growth activity, Premix WST1 (Example 2)
# Experimental: (§1) The cells placed in a 96-well plate at a density of 2×10^4 cells/well were cultured in an RPMI medium (containing 10% by volume FBS). The cells were transfected with each of the synthesized (10 nM each) siRNAs, and after 20 hours, the cell growth activity was determined with Premix WST1 reagent (trade name, manufactured by TAKARA BIO INC.). Relative growth ability (%) compared with the growth ability of the control (cells subjected to transfection without adding an siRNA) was determined. Each experiment was carried out with n=3, and the mean was determined.
# [2] = tested on: MV4-11 cells (ITD mutation-highly expressing); test: cell growth activity, Premix WST1 (Example 2)
# Experimental: as §1
# [3] = tested on: MV4-11 (ITD mutation) cells; test: cell growth with siRNA alone or siRNA cocktail, WST-1 (Example 7); conditions: final concentration 1.2 μM, electroporation, 72 hours, n=6 mean
# Experimental: As the composition of the present invention, a cocktail containing the synthesized siRNA1, 2 and 3, or siRNA3 alone, was examined for its growth inhibitory activity on MV4-11 (ITD mutation) cells. The synthesized siRNA1, 2 and 3 used were the same as in item (1) of Example 1 above.
# A medium for MV4-11 cells used was the same as in item (2) of above Example 1, and the cells were cultured at 37° C. for 24 hours in an RPMI 1640 medium (manufactured by TAKARA BIO INC.) supplemented with 10% by volume fetal bovine serum (FBS) (referred to hereinafter as the culture medium) in the presence of 5% by volume CO2. Then, transfection of the cells with the synthesized siRNA3 was carried out in the following manner. […]
# The cells added in an amount of 100 μl/well on the 96-well plate prepared in item (2) above were cultured at 37° C. in the presence of 5% by volume CO2. Seventy-two hours after the culture was initiated, the growth activity of the cells was determined using Premix WST-1 reagent (manufactured by TAKARA BIO INC.) according to a manufacturer's protocol. Each experiment was carried out with n=6, and the mean was determined. The relative growth ratio (%) as compared with the growth ability of the cells transfected with the control siRNA was determined.
# [4] = tested on: Flt3 mRNA highly expressing cells; test: cell growth activity, Premix WST1 (Example 2), stated for highly expressing cells together; conditions: regardless of presence or absence of ITD mutation, read-out: IC50 (50% inhibition concentration) of growth
# [5] = siRNA 10 nM, after 20 hours, n=3 mean, control = transfection without siRNA
substance,measurement,setting,value
"siRNA3: siRNA to juxtamembrane region (Flt3/JMD region) (target SEQ ID NO: 7); sense SEQ ID NO: 8, antisense SEQ ID NO: 9 (sense UAUGAAUAUGAUCUCAAAUTT; antisense AUUUGAGAUCAUAUUCAUATT; chemistry not given here)",Ratio of cell-growth activation defining RNA interference effect in HL60 as 1,[1],(0.50)
same,Relative growth ability (%) compared with the control,[1]; [5],45.1%
same,Ratio of cell-growth activation defining RNA interference effect in HL60 as 1,[2],(0.41)
same,Relative growth ability (%) compared with the control,[2]; [5],37.5%
same,relative growth ratio (%) as compared with the cells transfected with the control siRNA (growth inhibition to),[3],46.5%
same,IC50,[4],0.01 µM
